Reference: paper PMC2803436 (Current Chemical Genomics, 2008)
Non-standard residues stand in square brackets, D forms with d. Residues, ends and D or L forms follow the SMILES beside them. Nle = CCCC[C@H](N)C(=O)O

Tests used:
[1] = target: T1, TEV protease (Tobacco etch virus, UniProt P04517); assay: CP234-Luc/ENLYFQC verification assay; conditions: SCH HBr and L-DOPA tested from 0 – 1 mM; NF-023 and ATA from 0 – 0.2 mM
T1 sequence (P04517 2038-2279): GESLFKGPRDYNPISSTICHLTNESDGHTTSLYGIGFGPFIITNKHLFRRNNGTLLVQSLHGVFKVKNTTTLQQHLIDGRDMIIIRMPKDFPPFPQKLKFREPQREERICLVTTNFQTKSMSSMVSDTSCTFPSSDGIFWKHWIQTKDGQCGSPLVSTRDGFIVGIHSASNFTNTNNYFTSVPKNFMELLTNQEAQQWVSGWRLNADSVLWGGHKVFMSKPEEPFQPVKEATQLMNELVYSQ

[2] = target: T1, TEV protease; assay: Protein fusion; format: biochemical; conditions: tested from 0 – 0.1 mM
[3] = test system: TEV protease; assay: Initial tests of established inhibitors on TEV protease; format: biochemical, Tobacco Etch Virus; conditions: for Inhibition of TEV protease by known inhibitors of cysteine proteases: data not shown
[4] = target: T1, TEV protease; assay: LOPAC1280 library screen using the CP234-Luc/ENLYFQC protease assay; format: biochemical; conditions: compounds at 100 µM, 15 minutes at room temperature

| Compound | Inhibition of TEV protease cleavage in re-test, CP234-Luc/ENLYFQC assay [1] | Inhibition of TEV protease by known inhibitors of cysteine proteases [3] | further results |
| --- | --- | --- | --- |
| 2,5-dihydroxy-DL-tyrosine [L-DOPA] | did not inhibit |  | Inhibition of TEV protease cleavage in re-test, protein fusion cleavage assay [2]: did not inhibit |
| CCOC(=O)[C@H]1O[C@@H]1C(=O)N[C@@H](CC(C)C)C(=O)NCCC(C)C (relative stereo) [EST, (2S,3S)-trans-Epoxysuccinyl-L-leucylamido-3-methylbutane Ethyl Ester] |  | resistant |  |
| CCCC[C@@H](C=O)NC(=O)[C@H](CC(C)C)NC(=O)[C@H](CC(C)C)NC(C)=O [ALLN, N-acetyl-Leu-Leu-NIe-CHO] (Ac-Leu-Leu-[Nle]-aldehyde) |  | resistant |  |
| O=C(O)C1=CC(=C(c2ccc(O)c(C(=O)O)c2)c2ccc(O)c(C(=O)O)c2)C=CC1=O [ATA, aurintricarboxylic acid] | confirmed |  | TEV protease inhibition (cleavage of CP234-Luc/ENLYFQC) in primary screen [4]: greater than 60% |
| CC(C)C[C@H](NC(=O)[C@H]1O[C@@H]1C(=O)O)C(=O)NCCCCN=C(N)N [E-64] |  | resistant |  |
| Br.CN=c1nc(-c2ccccc2)n(-c2ccccc2)s1 [SCH HBr, N-(2,3-diphenyl-1,2,4-thiadiazol-5-(2H)-ylidene)methanamine hydrobromide] | did not inhibit |  | Inhibition of TEV protease cleavage in re-test, protein fusion cleavage assay [2]: did not inhibit |
| [Zn] [zinc] |  |  | Inhibition of TEV protease ([3]; 5 mM, also frequently precipitated the proteins out of solution): effectively inhibited |
